Test systems include RXF 393 renal; SF-539 CNS; NCI-H23 lung; UO-31 renal; SF-268 CNS; NCI-H226 lung; SF-295 CNS; NCI/ADR-RES ovarian; A549 NSCLC; HL-60(TB) leukemia.
Holding throughout (test): NCI anticancer screen, dose series, 48 h

SMILES strings stand for the structures.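 Cultured in 96-well plates, cells were exposed to test compound for 48 hours across five concentrations. GI50 marks 50% less growth. Definition used: TGI = concentration required for complete inhibition of growth.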

In the case of `CCCCCCCCCCCCCCCCSS(C)(=O)=O`, the TGI in the experiment on RXF 393 renal was 10.9 µM; in the experiment on SF-539 CNS, above 56.4 µM; in the experiment with NCI-H23 lung, above 75.8 µM; with UO-31 renal it was 35.7 µM; with SF-268 CNS, above 35.9 µM; in the experiment on NCI-H226 lung, above 35.3 µM. Further, the TGI was above 100 µM in the experiment with SF-295 CNS, 7.05 µM in the experiment on NCI/ADR-RES ovarian, above 80.3 µM with A549 NSCLC and 11.6 µM with HL-60(TB) leukemia.

On to `Nc1c(C(=O)c2cccc(C(O)(CO)CO)c2)cnn1-c1ccc(F)cc1`, for which the GI50 with RXF 393 renal, in the experiment on SF-539 CNS, in the experiment on NCI-H23 lung, in the experiment on UO-31 renal, in the experiment on SF-268 CNS and in the experiment on NCI-H226 lung was above 25 µM throughout. Further, the GI50 with SF-295 CNS, in the experiment with NCI/ADR-RES ovarian, in the experiment on A549 NSCLC and in the experiment on HL-60(TB) leukemia was above 25 µM in each case. Besides, the TGI in the experiment with RXF 393 renal, in the experiment with SF-539 CNS, in the experiment on NCI-H23 lung, in the experiment with UO-31 renal, in the experiment on SF-268 CNS and with NCI-H226 lung was above 25 µM throughout. The TGI in the experiment with SF-295 CNS, in the experiment with NCI/ADR-RES ovarian, with A549 NSCLC and with HL-60(TB) leukemia was above 25 µM each time.

Turning to `COc1ccc(-c2cc(=O)c3c(OC)c(O)c(OC)cc3o2)cc1`, the TGI with RXF 393 renal, in the experiment with SF-539 CNS, in the experiment with NCI-H23 lung, with UO-31 renal, in the experiment on SF-268 CNS and in the experiment with NCI-H226 lung was above 100 µM in each case. Further, the TGI in the experiment on SF-295 CNS, in the experiment on NCI/ADR-RES ovarian, in the experiment on A549 NSCLC and in the experiment on HL-60(TB) leukemia was above 100 µM throughout.

`Cc1c(C)n(CC(O)CNC2CCCCC2C)c2ccccc12` (stereo not given): the GI50 with RXF 393 renal was 10.5 µM; with SF-539 CNS, 15.8 µM; with NCI-H23 lung it was 16.8 µM; in the experiment with UO-31 renal, 10.8 µM; in the experiment on SF-268 CNS, 15.4 µM; with NCI-H226 lung, 17.2 µM. The GI50 in the experiment on SF-295 CNS is 14.1 µM; with NCI/ADR-RES ovarian it was 15.5 µM; in the experiment on A549 NSCLC, 16.9 µM; in the experiment on HL-60(TB) leukemia, 19.2 µM. The TGI was 23 µM with RXF 393 renal; 30.4 µM in the experiment with SF-539 CNS; 32.8 µM with NCI-H23 lung; 23.4 µM in the experiment with UO-31 renal; 30.2 µM in the experiment with SF-268 CNS; 35.9 µM with NCI-H226 lung. The TGI is 28.2 µM with SF-295 CNS, 29.8 µM in the experiment on NCI/ADR-RES ovarian, 32.8 µM with A549 NSCLC and 42.7 µM in the experiment on HL-60(TB) leukemia.

As for `COc1ccc(/C=C(/C(=O)N2CCN(c3ccc(C)cc3)CC2)c2cc(OC)c(OC)c(OC)c2)cc1N`, the GI50 is 0.271 µM in the experiment on RXF 393 renal; 0.176 µM with SF-539 CNS; 0.438 µM with NCI-H23 lung; 0.242 µM in the experiment on UO-31 renal; 0.43 µM in the experiment on SF-268 CNS; 0.352 µM with NCI-H226 lung. Moreover, the GI50 in the experiment with SF-295 CNS is 0.287 µM; in the experiment with NCI/ADR-RES ovarian, 0.293 µM; in the experiment on A549 NSCLC, 0.426 µM; in the experiment with HL-60(TB) leukemia it was 0.255 µM. For the same compound, the TGI in the experiment with RXF 393 renal was above 100 µM; with SF-539 CNS, 0.717 µM; with NCI-H23 lung, above 100 µM; in the experiment with UO-31 renal, above 35.3 µM; with SF-268 CNS, above 100 µM; in the experiment with NCI-H226 lung, above 100 µM. For the same compound, the TGI in the experiment with SF-295 CNS was above 100 µM; in the experiment with NCI/ADR-RES ovarian, 21.7 µM; in the experiment with A549 NSCLC, above 100 µM; with HL-60(TB) leukemia, 0.679 µM.

As to `CS(=O)(=O)c1nccc(-c2c(-c3cccc(OCc4ccccc4)c3)nc3sccn23)n1`, the GI50 is 15.3 µM in the experiment with RXF 393 renal; above 60.4 µM with SF-539 CNS; 12.8 µM in the experiment on NCI-H23 lung; 21.2 µM with UO-31 renal; 19.1 µM in the experiment on SF-268 CNS; 12.1 µM in the experiment with NCI-H226 lung. For the same compound, the GI50 in the experiment on SF-295 CNS was above 100 µM; in the experiment on NCI/ADR-RES ovarian, 20.3 µM; in the experiment with A549 NSCLC, above 71.1 µM; with HL-60(TB) leukemia, 3.97 µM. Further, the TGI with RXF 393 renal is above 100 µM; in the experiment with SF-539 CNS, above 100 µM; with NCI-H23 lung, above 100 µM; in the experiment on UO-31 renal, 78 µM; in the experiment on SF-268 CNS, above 100 µM; in the experiment with NCI-H226 lung, above 100 µM. The TGI in the experiment on SF-295 CNS is above 100 µM; in the experiment with NCI/ADR-RES ovarian it was above 100 µM; in the experiment on A549 NSCLC, above 100 µM; in the experiment with HL-60(TB) leukemia it was 27 µM.

The record behind these values is PubChem BioAssay (NCI).
